Reference: patent publication US7517517B2 (Janssen Pharmaceutica N.V., priority 2002, dated 2009)

Biological target: T1, cloned rat mGlu1 receptor (Rattus norvegicus, UniProt P23385)
T1 construct: expressed in transfected cells; host or cells: CHO cells
Assay: Signal transduction at the cloned rat mGlu1 receptor in CHO cells (glutamate-induced Ca2+ rise, FLIPR)
Format: cell-based

[1] = inhibition of glutamate-induced intracellular Ca2+ rise, CHO cells expressing mGlu1 receptor, compounds with pIC50 between 7 and 8
[2] = 50% inhibition of the glutamate-induced intracellular Ca2+ rise, CHO cells, FLIPR

T1 sequence (P23385 19-1199): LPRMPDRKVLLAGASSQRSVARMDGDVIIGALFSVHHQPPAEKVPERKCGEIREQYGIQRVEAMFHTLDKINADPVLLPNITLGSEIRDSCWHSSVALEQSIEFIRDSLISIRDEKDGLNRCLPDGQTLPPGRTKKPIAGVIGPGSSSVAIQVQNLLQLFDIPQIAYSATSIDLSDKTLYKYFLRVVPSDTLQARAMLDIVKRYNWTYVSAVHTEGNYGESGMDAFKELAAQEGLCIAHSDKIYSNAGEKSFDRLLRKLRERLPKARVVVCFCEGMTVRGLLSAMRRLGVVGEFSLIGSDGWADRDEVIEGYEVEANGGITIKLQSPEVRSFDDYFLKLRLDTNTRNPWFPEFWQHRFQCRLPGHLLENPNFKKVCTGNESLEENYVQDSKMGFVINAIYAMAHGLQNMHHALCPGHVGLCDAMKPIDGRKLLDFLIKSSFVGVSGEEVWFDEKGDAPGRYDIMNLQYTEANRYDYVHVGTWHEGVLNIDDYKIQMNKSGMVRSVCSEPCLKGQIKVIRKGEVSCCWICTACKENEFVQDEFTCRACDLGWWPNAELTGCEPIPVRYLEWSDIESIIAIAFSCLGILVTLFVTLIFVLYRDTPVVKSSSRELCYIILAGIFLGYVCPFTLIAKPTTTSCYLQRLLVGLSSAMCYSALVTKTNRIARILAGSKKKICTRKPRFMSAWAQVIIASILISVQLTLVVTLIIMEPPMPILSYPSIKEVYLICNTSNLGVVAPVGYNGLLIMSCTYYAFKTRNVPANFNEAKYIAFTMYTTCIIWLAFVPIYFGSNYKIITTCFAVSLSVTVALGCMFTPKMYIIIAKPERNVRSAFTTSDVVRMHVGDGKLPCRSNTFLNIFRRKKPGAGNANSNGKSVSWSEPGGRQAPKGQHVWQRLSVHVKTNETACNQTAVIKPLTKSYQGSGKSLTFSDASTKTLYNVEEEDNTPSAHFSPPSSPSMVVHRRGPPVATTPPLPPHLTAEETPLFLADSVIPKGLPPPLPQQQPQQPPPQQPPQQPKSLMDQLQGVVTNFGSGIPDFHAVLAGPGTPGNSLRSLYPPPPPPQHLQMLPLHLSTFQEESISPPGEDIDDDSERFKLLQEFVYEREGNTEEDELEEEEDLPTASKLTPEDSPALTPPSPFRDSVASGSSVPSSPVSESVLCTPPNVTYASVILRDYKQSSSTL

| SMILES | IC50 [1] [µM] | IC50 [2] [µM] |
| --- | --- | --- |
| COc1nc2ccc(C(=O)[C@H]3CC[C@@H](OC)CC3)cc2cc1C [Compound 98] | 0.0269 | – |
| O=C(c1ccc2nc3c(cc2c1)CCCO3)C1CCc2ccccc2C1 (stereo not shown) [Compound 436] | 0.055 | – |
| COC1CCC(C(=O)c2ccc3nc4c(cc3c2)CCN4C)CC1 (stereo not shown) [Compound 423] | 0.0129 | – |
| COC1CCC(C(=O)c2ccc3nc4c(cc3c2)CCCC4)CC1 (stereo not shown) [Compound 420] | – | 0.00733 |
| CC1CCC(C(=O)c2ccc3nc4c(cc3c2)CCS4)CC1 (stereo not shown) [Compound 431] | 0.0245 | – |
| CCc1cc2cc(C(=O)C3CC=CCC3)ccc2nc1C (stereo not shown) [Compound 112] | 0.0891 | – |
| CCc1cc2cc(C(=O)C34CCC(CC3)C4)ccc2nc1C [Compound 300] | 0.0832 | – |
| CCc1cc2cc(C(=O)C3CCC(OC)CC3)ccc2nc1NC(=O)CCCC1CCCCC1 (stereo not shown) [Compound 346] | 0.0182 | – |
| CCc1cc2cc(C(=O)C3CCC(OC)CC3)ccc2nc1NC(=O)Nc1ccccc1SC (stereo not shown) [Compound 373] | 0.0562 | – |
| O=C(c1ccc2nc3c(cc2c1)CCCO3)C12CC3CC(CC(C3)C1)C2 [Compound 433] | 0.0162 | – |
| CCc1cc2cc(C(=O)Cc3ccsc3)ccc2nc1Cl [Compound 296] | 0.0603 | – |
| O=C(CC1CC2CCC1C2)c1ccc2nc3c(cc2c1)CCCO3 (stereo not shown) [Compound 497] | – | 0.00944 |
| CCc1cc2cc(C(=O)Cc3ccccc3)ccc2nc1C [Compound 237] | – | 0.00977 |
| CO[C@H]1CC[C@H](C(=O)c2ccc3nc4c(cc3c2)CCCS4)CC1 [Compound 178] | 0.012 | – |
| CCc1cc2cc(C(=O)Cc3ccccc3)ccc2nc1Cl [Compound 117] | 0.0447 | – |
| O=C(Cc1ccc(F)c(F)c1)c1ccc2nc3c(cc2c1)CCCO3 [Compound 474] | 0.0741 | – |
| CCOCC(=O)Nc1nc2ccc(C(=O)C3CCC(OC)CC3)cc2cc1CC (stereo not shown) [Compound 326] | 0.0389 | – |
| COC1CCC(C(=O)c2ccc3nc4c(cc3c2)CCCS4)CC1 (stereo not shown) [Compound 176] | – | 0.00468 |
| CN(C)CC(C(=O)c1ccc2nc3c(cc2c1)CCS3)c1ccccc1 (stereo not shown) [Compound 442] | 0.0933 | – |
| CCc1cc2cc(C(=O)C3CCC(OC)CC3)ccc2nc1NC(=O)CCCc1ccc(OC)c(OC)c1 (stereo not shown) [Compound 341] | 0.0148 | – |
| CC1(C(=O)c2ccc3nc4c(cc3c2)CCCO4)CC2CCC1C2 (stereo not shown) [Compound 494] | 0.0295 | – |
| CCCO[C@H]1CC[C@@H](C(=O)c2ccc3nc(C)c(CC)cc3c2)CC1 [Compound 255] | 0.0589 | – |
| CCc1cc2cc(C(=O)[C@H]3CC[C@@H](OC)CC3)ccc2nc1N(C)C [Compound 128] | 0.0302 | – |

| SMILES | IC50 [1] [µM] | IC50 [2] [µM] |
| --- | --- | --- |
| COC1CCC(C(=O)c2ccc3nc4c(cc3c2)CCO4)CC1 (stereo not shown) [Compound 429] | 0.0437 | 0.00417 |
| CCCc1cc2cc(C(=O)[C@H]3CC[C@@H](OC)CC3)ccc2nc1OC [Compound 97] | 0.0832 | – |
| O=C(c1ccc2nc3c(cc2c1)CCCS3)C1COc2ccccc2O1 (stereo not shown) [Compound 512] | 0.0741 | – |
| CCc1cc2cc(C(=O)C3CCCC(OC)C3)ccc2nc1C (stereo not shown) [Compound 241] | 0.0214 | – |
| CCc1cc2cc(C(=O)C3CCC(OC)CC3)ccc2nc1NC(=O)C12CC3CC(CC(C3)C1)C2 (stereo not shown) [Compound 199] | 0.0851 | – |
| CO[C@H]1CC[C@H](C(=O)c2ccc3nc4c(cc3c2)CCS4)CC1 [Compound 418] | – | 0.00902 |
| O=C(CC1(F)CC2CCC1C2)c1ccc2nc3c(cc2c1)CCCO3 (stereo not shown) [Compound 482] | 0.0457 | – |
| O=C(CCc1ccccc1)c1ccc2nc3c(cc2c1)CCS3 [Compound 448] | 0.049 | – |
| O=C(CC1CC2CCC1C2)c1ccc2nc(Cl)ccc2c1 (stereo not shown) [Compound 313] | 0.0447 | – |
| CC1Cc2cc3cc(C(=O)Cc4ccccc4)ccc3nc2O1 (stereo not shown) [Compound 455] | – | 0.00881 |
| O=C(Cc1cccc(F)c1)c1ccc2nc3c(cc2c1)CCCO3 [Compound 473] | 0.0479 | – |
| CCc1cc2cc(C(=O)C3CCC(OC)CC3)ccc2nc1NC(=O)c1ccc(=O)[nH]c1 (stereo not shown) [Compound 334] | 0.0112 | – |
| CCc1cc2cc(C(=O)C3(F)CCC(OC)CC3)ccc2nc1Cl (single isomer, unassigned) [Compound 221] | 0.0617 | – |
| COC1CCC(C(=O)c2ccc3nc4c(cc3c2)CCCO4)CC1 (stereo not shown) [Compound 174] | – | 0.00324 |
| CCCc1cc2cc(C(=O)CC3CC4CCC3C4)ccc2nc1C (stereo not shown) [Compound 307] | 0.0776 | – |
| CCc1cc2cc(C(=O)C3(F)CCC(OC)CC3)ccc2nc1Cl (single isomer, unassigned) [Compound 220] | 0.0135 | – |
| CCc1cc2cc(C(=O)[C@H]3CC[C@H](OC)CC3)ccc2nc1C [Compound 131] | 0.0646 | – |
| CO[C@H]1CC[C@@H](C(=O)c2ccc3nc(C)c(CN(C)C)cc3c2)CC1 [Compound 287] | 0.049 | – |
| CCc1cc2cc(C(=O)[C@H]3CC[C@@H](OC)CC3)ccc2[nH]c1=S [Compound 36] | 0.1 | – |
| O=C(Cc1ccccc1F)c1ccc2nc3c(cc2c1)CCCS3 [Compound 499] | – | 0.01 |
| O=C(Cc1ccccc1)c1ccc2nc3sccc3cc2c1 [Compound 462] | 0.0126 | – |
| O=C(Cc1ccc(F)cc1)c1ccc2nc3c(cc2c1)CCCS3 [Compound 483] | 0.0138 | – |
| COC1CCCC(C(=O)c2ccc3nc4c(cc3c2)CCCO4)C1 (stereo not shown) [Compound 440] | 0.0117 | – |

| SMILES | IC50 [1] [µM] | IC50 [2] [µM] |
| --- | --- | --- |
| COC1CCC(F)(C(=O)c2ccc3nc4c(cc3c2)CCCO4)CC1 (stereo not shown) [Compound 488] | – | 0.00537 |
| Cc1cc2cc3c(cc2cc1C(=O)Cc1ccccc1)CCCS3 [Compound 506] | – | 0.00331 |
| CCc1cc2cc(C(=O)Cc3ccccc3OC)ccc2nc1C [Compound 236] | 0.0676 | – |
| CCc1cc2cc(C(=O)[C@H]3CC[C@@H](OC)CC3)ccc2nc1NC(=O)C1CCN(C(C)=O)CC1 [Compound 193] | 0.0617 | – |
| COC1CCCC(C(=O)c2ccc3nc4c(cc3c2)CCCO4)C1 (stereo not shown) [Compound 437] | 0.0166 | – |
| O=C(CCc1ccccc1)c1ccc2nc3c(cc2c1)CCCO3 [Compound 434] | 0.0832 | – |
| CCCc1cc2cc(C(=O)C3CC4CCC3C4)ccc2nc1C (stereo not shown) [Compound 318] | 0.0955 | – |
| O=C(c1ccc2nc3c(cc2c1)CCS3)C1(F)CC2CCC1C2 (stereo not shown) [Compound 496] | 0.0661 | – |
| O=C(c1ccc2nc3c(cc2c1)CCS3)C1CC2CCC1C2 (stereo not shown) [Compound 447] | 0.0191 | – |
| O=C(c1ccc2nc3c(cc2c1)CCS3)C1CCCCC1 [Compound 427] | – | 0.00767 |
| O=C(Cc1ccsc1)c1ccc2nc3c(cc2c1)CCCO3 [Compound 465] | – | 0.00716 |
| CCc1cc2cc(C(=O)Cc3cccs3)ccc2nc1C [Compound 298] | 0.0331 | – |
| O=C(c1ccc2nc3c(cc2c1)CCS3)C12CC3CC(CC(C3)C1)C2 [Compound 449] | 0.017 | – |
| Cc1cc2nc3c(cc2cc1C(=O)Cc1ccccc1)CCCO3 [Compound 504] | – | 0.00537 |
| O=C(c1ccc2nc3c(cc2c1)CCCO3)C1CC2CCC1O2 (stereo not shown) [Compound 456] | 0.0355 | – |
| O=C(c1ccc2nc3c(cc2c1)CCS3)[C@H]1CC[C@@H](O)CC1 [Compound 421] | 0.0115 | – |
| CCc1cc2cc(C(=O)[C@H]3CCC[C@H](OC)C3)ccc2nc1Cl (relative stereo) [Compound 239] | 0.02 | – |
| CCc1cc2cc(C(=O)C3CCC(OC)CC3)ccc2nc1NC(=O)CCSC (stereo not shown) [Compound 338] | 0.0123 | – |
| CCc1cc2cc(C(=O)C3CC4CC3CC4O)ccc2nc1Cl (stereo not shown) [Compound 280] | 0.0457 | – |
| CCc1cc2cc(C(=O)[C@H]3CC[C@@H](OC)CC3)ccc2nc1NC(=O)c1ccc(=O)[nH]c1 [Compound 191] | 0.0692 | – |
| CCc1c(C)nc2ccc(C(=O)[C@H]3CC[C@@H](OC)CC3)cc2c1CC [Compound 108] | 0.0562 | – |
| CCc1cc2cc(C(=O)[C@H]3CC[C@@H](OC)CC3)c(C)cc2[nH]c1=O [Compound 419] | – | 0.00861 |
| CCc1cc2cc(C(=O)Cc3ccc(F)c(F)c3)ccc2nc1C [Compound 277] | 0.0363 | – |

| SMILES | IC50 [1] [µM] | IC50 [2] [µM] |
| --- | --- | --- |
| CCO[C@H]1CC[C@@H](C(=O)c2ccc3nc(C)c(CC)cc3c2)CC1 [Compound 115] | 0.0229 | – |
| CCc1cc2cc(C(=O)C3CCC(OC)CC3)ccc2nc1NC(=O)CSCc1ccccc1 (stereo not shown) [Compound 332] | 0.0676 | – |
| CCc1cc2cc(C(=O)[C@H]3CC[C@H](OC)CC3)c(C)cc2[nH]c1=O [Compound 213] | 0.02 | – |
| O=C(Cc1ccccc1)c1ccc2nc3c(cc2c1)CCO3 [Compound 463] | 0.0105 | – |
| O=C(Cc1ccccc1)c1ccc2nc3c(cc2c1)CCCS3 [Compound 439] | – | 0.00948 |
| CCc1cc2cc(C(=O)C3CCC(OC)CC3)ccc2nc1NC(=O)c1ccc(OC)cc1 (stereo not shown) [Compound 323] | 0.0525 | – |
| CCc1cc2cc(C(=O)CC3CCCCC34OCCO4)ccc2nc1Cl (stereo not shown) [Compound 243] | 0.0513 | – |
| O=C(Cc1ccc(F)cc1)c1ccc2nc3c(cc2c1)CCCO3 [Compound 475] | 0.0195 | – |
| O=C(c1ccc2nc3c(cc2c1)CCCO3)C1CC2C=CC1C2 (stereo not shown) [Compound 461] | 0.0224 | – |
| CCc1cc2cc(C(=O)C3(c4ccccc4)CC3)ccc2nc1C [Compound 283] | 0.0955 | – |
| O=C(c1ccc2nc3c(cc2c1)CCCO3)C1CC2CCC1O2 (stereo not shown) [Compound 457] | 0.0724 | – |
| CO[C@H]1CC[C@H](C(=O)c2ccc3nc4c(cc3c2)CCCO4)CC1 [Compound 175] | 0.0195 | – |
| CCc1cc2cc(C(=O)C3CCC(OC)CC3)c(C)cc2nc1C (stereo not shown) [Compound 214] | – | 0.00585 |
| O=C(Cc1ccc(Br)cc1)c1ccc2nc3c(cc2c1)CCCO3 [Compound 498] | 0.0166 | – |
| O=C(c1ccc2nc3c(cc2c1)CCS3)[C@H]1CC[C@H](O)CC1 [Compound 422] | 0.0955 | – |
| CCc1cc2cc(C(=O)C3CCC(OC)CC3)ccc2nc1NC(=O)C1CCC(OC)CC1 (stereo not shown) [Compound 343] | 0.0468 | – |
| CO[C@H]1CC[C@@H](C(=O)c2ccc3nc4c(cc3c2)CCS4)CC1 [Compound 416] | – | 0.00259 |
| CCc1cc2cc(C(=O)Cc3ccccc3)ccc2nc1F [Compound 527] | 0.0589 | – |
| CCc1cc2cc(C(=O)C3CCC(OC)CC3)c(C)cc2nc1Cl (stereo not shown) [Compound 210] | – | 0.00484 |
| O=C(Cc1ccccc1)c1ccc2nc3c(cc2c1)CCC3 [Compound 446] | 0.0275 | – |
| CCc1cc2cc(C(=O)C3CC4CC(O)C3C4)ccc2nc1Cl (stereo not shown) [Compound 281] | 0.0234 | – |
